IC50 and Activity data for ten compounds are collected here from ChEMBL document CHEMBL6127049, “Discovery of the selective and nanomolar inhibitor of DPP-4 more potent than sitagliptin by structure-guided rational design” (Eur J Med Chem, 2024).

Assay [1] has as its target Dipeptidyl peptidase 4 (Homo sapiens, UniProt P27487). As to the kind of experiment: Inhibition of DPP4 (unknown origin) assessed as hydrolysis rate using Gly-pro-p-nitroanilide as substrate measured after 20 mins incubation by fluorometric assay.
Assay [2] deals with Rattus norvegicus. As to the kind of experiment: Reduction of serum glutamate oxaloacetate transaminase (SGOT) level in STZ-induced type 2 diabetes male Wistar albino rat model at 20 mg/kg, po measured after 4 weeks by hepatic function test. Format: functional, organism-based.
In assay [3] the test system is Rattus norvegicus. As to the kind of experiment: Anti-diabetic activity in normal Wistar rat model assessed as blood glucose level at 10 mg/kg, po followed by treated administered 3 mg/kg orally measured after 120 mins by Oral glucose tolerance test (reference value: 126.5 + /- 3.90 mg/dL). It counts as functional. Conditions: 2 h.
Assay [4] has as its system Rattus norvegicus. As to the kind of experiment: Antihyperlipidemic effect in STZ-induced type 2 diabetes male Wistar albino rat model assessed as total cholesterol level at 20 mg/kg, po measured after 4 weeks (reference value: 227.04 +/- 4.10 mg/dL). Format: functional.
The subject of assay [5] is Rattus norvegicus. Nature of the assay: Anti-diabetic activity in normal Wistar rat model assessed as blood glucose level at 20 mg/kg, po followed by treated administered 3 mg/kg orally measured immediately after administration by Oral glucose tolerance test (reference value: 105.12 mg/dL). It counts as functional.
The subject of assay [6] is Rattus norvegicus. Nature of the assay: Antihyperlipidemic effect in STZ-induced type 2 diabetes male Wistar albino rat model assessed as HDL level at 10 mg/kg, po measured after 4 weeks (reference value: 25.54 +/- 2.62 mg/dL). It counts as functional.
Assay [7] concerns Rattus norvegicus. Nature of the assay: Reduction of alkaline phosphatase (ALP) level in STZ-induced type 2 diabetes male Wistar albino rat model at 10 mg/kg, po measured after 4 weeks by hepatic function test. It counts as functional, organism-based.
Assay [8] deals with Rattus norvegicus. As to the kind of experiment: Antihyperlipidemic effect in STZ-induced type 2 diabetes male Wistar albino rat model assessed as triglyceride level at 10 mg/kg, po measured after 4 weeks (reference value: 190.23 +/- 4.37 mg/dL). It counts as functional.
Assay [9] has as its system Rattus norvegicus. Nature of the assay: Antihyperlipidemic effect in STZ-induced type 2 diabetes male Wistar albino rat model assessed as LDL level at 20 mg/kg, po measured after 4 weeks (reference value: 184.65 +/- 4.57 mg/dL). It counts as functional.
The test system of assay [10] is Rattus norvegicus. Nature of the assay: Anti-diabetic activity in normal Wistar rat model assessed as blood glucose level at 10 mg/kg, po followed by treated administered 3 mg/kg orally measured after 60 mins by Oral glucose tolerance test (reference value: 153.74 + /- 3.94 mg/dL). Format: functional. Conditions: 1 h.
Assay [11] concerns Rattus norvegicus. As to the kind of experiment: Antihyperlipidemic effect in STZ-induced type 2 diabetes male Wistar albino rat model assessed as HDL level at 20 mg/kg, po measured after 4 weeks (reference value: 25.54 +/- 2.62 mg/dL). It counts as functional.
In assay [12] the test system is Rattus norvegicus. Nature of the assay: Reduction of serum glutamate pyruvate transaminase (SGPT) level in STZ-induced type 2 diabetes male Wistar albino rat model at 20 mg/kg, po measured after 4 weeks by hepatic function test. It counts as functional, organism-based.
In assay [13] the test system is Rattus norvegicus. Nature of the assay: Anti-diabetic activity in normal Wistar rat model assessed as blood glucose level at 10 mg/kg, po followed by treated administered 3 mg/kg orally measured after 30 mins by Oral glucose tolerance test (reference value: […] 176.14 + /- 4.04 mg/dL). It counts as functional. Conditions: 0.5 h.
Assay [14] has as its system Rattus norvegicus. As to the kind of experiment: Anti-diabetic activity in normal Wistar rat model assessed as blood glucose level at 10 mg/kg, po followed by treated administered 3 mg/kg orally measured immediately after administration by Oral glucose tolerance test (reference value: 105.12 mg/dL). Format: functional.
Assay [15] relates to Rattus norvegicus. As to the kind of experiment: Reduction of serum glutamate pyruvate transaminase (SGPT) level in STZ-induced type 2 diabetes male Wistar albino rat model at 10 mg/kg, po measured after 4 weeks by hepatic function test. Format: functional, organism-based.
For assay [16], the system named is Rattus norvegicus. As to the kind of experiment: Anti-diabetic activity in normal Wistar rat model assessed as blood glucose level at 20 mg/kg, po followed by treated administered 3 mg/kg orally measured after 60 mins by Oral glucose tolerance test (reference value: 153.74 + /- 3.94 mg/dL). Format: functional. The following applies: 1 h.
Assay [17] relates to Rattus norvegicus. Nature of the assay: Reduction of alkaline phosphatase (ALP) level in STZ-induced type 2 diabetes male Wistar albino rat model at 20 mg/kg, po measured after 4 weeks by hepatic function test. Format: functional, organism-based.
Assay [18] relates to Rattus norvegicus. As to the kind of experiment: Anti-diabetic activity in normal Wistar rat model assessed as blood glucose level at 20 mg/kg, po followed by treated administered 3 mg/kg orally measured after 90 mins by Oral glucose tolerance test (reference value: 134.11 + /- 4.64 mg/dL). It counts as functional. The following applies: 1.5 h.
The test system of assay [19] is Rattus norvegicus. As to the kind of experiment: Anti-diabetic activity in normal Wistar rat model assessed as blood glucose level at 10 mg/kg, po followed by treated administered 3 mg/kg orally measured after 90 mins by Oral glucose tolerance test (reference value: 134.11 + /- 4.64 mg/dL). The following applies: 1.5 h. Format: functional.
The test system of assay [20] is Rattus norvegicus. As to the kind of experiment: Antihyperlipidemic effect in STZ-induced type 2 diabetes male Wistar albino rat model assessed as LDL level at 10 mg/kg, po measured after 4 weeks (reference value: 184.65 +/- 4.57 mg/dL). Format: functional.
Assay [21] deals with Rattus norvegicus. As to the kind of experiment: Reduction of serum glutamate oxaloacetate transaminase (SGOT) level in STZ-induced type 2 diabetes male Wistar albino rat model at 10 mg/kg, po measured after 4 weeks by hepatic function test. It counts as functional, organism-based.
In assay [22] the test system is Rattus norvegicus. As to the kind of experiment: Antihyperlipidemic effect in STZ-induced type 2 diabetes male Wistar albino rat model assessed as triglyceride level at 20 mg/kg, po measured after 4 weeks (reference value: 190.23 +/- 4.37 mg/dL). Format: functional.
In assay [23] the test system is Rattus norvegicus. Nature of the assay: Antihyperlipidemic effect in STZ-induced type 2 diabetes male Wistar albino rat model assessed as total cholesterol level at 10 mg/kg, po measured after 4 weeks (reference value: 227.04 +/- 4.10 mg/dL). It counts as functional.
Assay [24] concerns Rattus norvegicus. As to the kind of experiment: Anti-diabetic activity in normal Wistar rat model assessed as blood glucose level at 20 mg/kg, po followed by treated administered 3 mg/kg orally measured after 30 mins by Oral glucose tolerance test (reference value: 176.14 + /- 4.04 mg/dL). Conditions: 0.5 h. Format: functional.
Assay [25] concerns Rattus norvegicus. Nature of the assay: Anti-diabetic activity in normal Wistar rat model assessed as blood glucose level at 20 mg/kg, po followed by treated administered 3 mg/kg orally measured after 120 mins by Oral glucose tolerance test (reference value: 126.5 + /- 3.90 mg/dL). It counts as functional. The following applies: 2 h.

Calls of active or inactive are those of the source. The calls are words filed in the database; no cut-off is given here.

Chain of Dipeptidyl peptidase 4 (P27487 whole entry): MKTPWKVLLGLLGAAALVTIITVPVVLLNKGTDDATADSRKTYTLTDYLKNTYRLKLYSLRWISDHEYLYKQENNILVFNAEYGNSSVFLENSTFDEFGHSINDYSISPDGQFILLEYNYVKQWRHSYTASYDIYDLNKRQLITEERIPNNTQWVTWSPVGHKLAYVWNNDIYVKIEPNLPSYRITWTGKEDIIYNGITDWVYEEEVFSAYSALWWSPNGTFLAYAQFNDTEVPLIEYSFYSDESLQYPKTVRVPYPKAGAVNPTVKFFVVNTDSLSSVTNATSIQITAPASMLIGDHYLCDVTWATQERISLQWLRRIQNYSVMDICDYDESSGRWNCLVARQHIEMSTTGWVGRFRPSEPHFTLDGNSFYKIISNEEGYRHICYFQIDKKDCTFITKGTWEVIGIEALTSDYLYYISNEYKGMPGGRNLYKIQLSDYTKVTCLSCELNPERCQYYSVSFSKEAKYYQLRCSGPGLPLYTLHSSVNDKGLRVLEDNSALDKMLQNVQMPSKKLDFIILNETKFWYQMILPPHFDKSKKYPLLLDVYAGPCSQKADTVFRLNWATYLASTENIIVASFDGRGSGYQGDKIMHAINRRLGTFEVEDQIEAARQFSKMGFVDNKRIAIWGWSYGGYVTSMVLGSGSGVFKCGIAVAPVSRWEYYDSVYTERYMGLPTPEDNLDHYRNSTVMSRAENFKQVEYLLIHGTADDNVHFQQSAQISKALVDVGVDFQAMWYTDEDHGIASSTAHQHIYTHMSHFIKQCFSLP

Broadly, the IC50 is the midpoint of a concentration-inhibition curve. As to `CC1=C(CC(=O)N2CCn3c(nnc3C(F)(F)F)C2)C(c2ccc(F)c(F)c2)NC(=O)N1` (centres undefined), the IC50 in [1] worked out at 1060 nM.
In the case of `Cc1nc(N2CCCC(N)C2)nc(C)c1CC(=O)O` (centres undefined), the IC50 in [1] amounted to 1400 nM.
In the case of `CC1=C([N+](=O)[O-])C(c2ccc(F)c(F)c2)N=C(N)N1C(=O)CN1CCCC1C#N` (centres undefined), the IC50 in [1] is 710 nM.
For the compound `CC1=C(C(=O)O)C(c2ccc(F)c(F)c2)N=C(N)N1C(=O)CN1CCCC(N)C1` (centres undefined), the outcome in assay [2], in assay [7], in assay [12], in assay [15], in assay [17] and in assay [21] was Active. Moreover, the Activity stood at 106.76 mg/dL in [3]; 134.45 mg/dL in assay [4]; 101.44 mg/dL in assay [5]; 48.23 mg/dL in assay [6]; 143.78 mg/dL in assay [8]; 107.12 mg/dL in [9]. The Activity in assay [10] was 108.35 mg/dL; in assay [11], 56.98 mg/dL; in assay [13] it was 118.62 mg/dL; in assay [14] it was 103.07 mg/dL; in assay [16], 118.96 mg/dL; in assay [18], 114.84 mg/dL. Besides, the Activity was found to be 107.57 mg/dL in [19]; 123.32 mg/dL in assay [20]; 114.65 mg/dL in [22]; 148.09 mg/dL in assay [23]; 115.15 mg/dL in assay [24]; 110.72 mg/dL in assay [25]. Also, the IC50 in assay [1] was determined as 90 nM.
Turning to `CC1=C(CC(=O)N2CCCC(N)C2)C(c2ccc(F)c(F)c2)NC(=O)N1` (centres undefined), the IC50 in assay [1] came out at 1040 nM.
`CC1=C([N+](=O)[O-])C(c2ccc(F)c(F)c2)N=C(N)N1C(=O)CN1CCCC(N)C1` (centres undefined): in assay [1], the IC50 is 821 nM.
Same read-out and setting: next, `CC1=C(CC(=O)N2CCCC2C#N)C(C)NC(=O)N1` (centres undefined): 1030 nM; `CC1=C(C(=O)O)C(c2ccc(F)c(F)c2)N=C(N)N1C(=O)CN1CCC[C@H]1C(=O)O` (some centres undefined): 1060 nM; `Cc1nc(N2CCCC2C#N)nc(C)c1CC(=O)O` (centres undefined): 1230 nM.
With `Cc1nc(N2CCn3c(nnc3C(F)(F)F)C2)nc(C)c1CC(=O)O`, in [1], the IC50 stood at 226 nM.
